The values that follow are results of earlier work, collected in paper PMC3309614 (Journal of the American Chemical Society, 2011).

The test system of this data set is kinesin-5 L214A. Particulars: L214A mutation in allosteric binding site.

Turning to S-Trityl-L-cyteine [STLC], the “effect of L214A mutation on inhibition” value is “known to suppress STLC inhibition”.
